The structures appear in SMILES notation.

For data set [1] the following is noted: humans, transnasal, Cremophor EL vehicle; cited from earlier work.
Data set [2] is described as follows: Pharmacokinetic test of lorazepam-containing nasal formulation in rabbit (bioavailability test). The note with it: plasma, other: transnasal, 1.6 mg/kg.
Procedure: Right before this experiment, rabbits (n=3) were weighed, and a mixed solution including 25 mg of ketamine and 4 mg of xylazine was intramuscularly injected to the rabbits per kilogram (Kg) in order to anesthetize the rabbits, and a catheter was fastened to each rabbit to collect blood from rabbits' otic artery. An intravenous injection was performed by administering the mixed solution to the rabbits via the rabbits' otic artery at a dose of 1 mg/kg for approximately 20 seconds. […] Then, each formulation was sprayed to the rabbits using a Pfeiffer nasal spry system.
Blood samples (1 Ml) were collected from the rabbits' otic artery at 0, 2, 5, 10, 20, 30, 45, 60 and 120 minutes after the intravenous injection and transnasal administration of each formulation. Each of the blood samples was centrifuged to separate rabbit plasma, which was stored at −20° C. until is will be used for analysis. In order to analyze the plasma samples, each of the plasma samples (0.5 Ml) was exactly transferred to a 1.5 Ml polypropylene centrifuge tube. […]
In this case, the lorazepam was set to a concentration of 9%, and was administered at a dose of 1.6 mg/kg. […] Each plasma sample pre-treated with acetonitrile was quantified under the following LC/MS/MS conditions. […] The ionization was analyzed in a positive mode using an electrospray ionization (ESI) method, and the ion spray temperature was set to 500° C.

Take `CN1C(=O)CN=C(c2ccccc2)c2cc(Cl)ccc21` [diazepam]: in data set [1], the “Peak concentration versus intravenous administration” value is “lower than that observed after the intravenous administration”.

Turning to `O=C1Nc2ccc(Cl)cc2C(c2ccccc2Cl)=NC1O` (centres unmarked) [lorazepam], the bioavailability in data set [2] turned out to be 35%.

Usually bioavailability stands for dose-corrected exposure relative to a reference, in per cent. A lower bioavailability goes with little systemic uptake.

(Values after patent publication US8592406B2, “Transnasal anticonvulsive pharmaceutical composition comprising poorly soluble anticonvulsant” (SK Biopharmaceuticals Co., Ltd., priority 2008, dated 2013).)
